Laboratory results as given in PubChem BioAssay (NCI).
“And” between values parts separate entries of the source, which are not always exact repeats. Identical values can stand only once.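 These data come from cells grown in 96-well plates and exposed to compound for 48 hours at five concentrations. GI50 marks 50% less growth. At the TGI there is no net growth.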

System: SN12C renal
Test: inhibition of tumour cell growth, NCI panel, 48 h

SMILES | GI50 | TGI
C#CCOc1cccc(Nc2ncnc3c(NC(=O)C=C)cccc23)c1 | 16.5 µM | 62.6 µM
O=C(/C(=C\c1c(-c2ccccc2)[nH]c2ccccc12)S(=O)(=O)c1ccccc1)c1ccccc1 | > 100 µM | > 100 µM
CCNC(=O)/C(=C/c1ccc(OC)cc1)c1cc(OC)c(OC)c(OC)c1 | – | > 100 µM
Cc1ccc(OCCOCCOCCOCCOc2ccc(C)n(O)c2=S)c(=S)n1O | 0.0266 µM | > 100 µM
COc1ccc(-c2ccc3c(N4CCOC[C@@H]4C)nc(N4CCOC[C@@H]4C)nc3n2)cc1CO | 0.0053 µM and 0.0208 µM | > 100 µM
N[C@H](CCC(=O)N[C@@H](Cc1c[nH]c2ccccc12)C(=O)O)C(=O)O | > 100 µM | > 100 µM
Nc1ccccc1O.O.O=C(O)C1[O][Sb][O]C1C(=O)O (centres undefined) | 7.7 µM | 21.3 µM
O=C(c1ccco1)c1c(C(F)(F)F)n([O-])c2ccc(C(F)(F)F)cc2[n+]1=O | 0.255 µM | 0.556 µM
OC(c1cc(-c2ccc(C(F)(F)F)cc2)nc(C(F)(F)F)c1)C1CCCCN1 (centres undefined) | 1.79 µM and 3.13 µM | 3.19 µM and 7.37 µM
CC(C)CC(C/C=C1/CC(CO)(COC(=O)C(C)(C)C)OC1=O)CC(C)C (centres undefined) | – | 22.2 µM
CN(C)C(=S)SSC(=S)N(C)C | 14.7 µM | 28.7 µM and > 46.4 µM and 54.5 µM
CCCC/C(=C\C1=C(C)C(=O)C(OC)=C(OC)C1=O)C(=O)O | > 100 µM | > 100 µM
CCc1ccc2c(c1)C(=O)c1c-2n(CCCN=[N+]=[N-])c(=O)c2cc([N+](=O)[O-])ccc12 | > 50 µM | > 50 µM
Cn1c(=O)c2c(nc(C(=N)SCC(=O)O)n2C)n(C)c1=O | – | > 100 µM
COc1ccc(C(CC(=O)c2ccc3c(c2)OCO3)c2c(O)c3ccccc3oc2=O)cc1OC (centres undefined) | – | > 100 µM
Nc1cc(Br)c(-c2nnc(CCC(=O)c3nc4ccccc4[nH]3)o2)c(Br)c1 | 29.5 µM | > 100 µM
CCC/C=C/C=C/C1CC(O)C(O)C(=O)C1CO (centres undefined) | – | > 100 µM
COc1ccc(/C(C)=C(\c2ccc(OCCN3CCCCCC3)cc2)c2ccc(OC(=O)C3CCCCC3)cc2)cc1 | 1.11 µM | 3.28 µM

System: SF-539 CNS
Test: inhibition of tumour cell growth, NCI panel, 48 h

SMILES | GI50 | TGI
C#CCOc1cccc(Nc2ncnc3c(NC(=O)C=C)cccc23)c1 | 14 µM | 36 µM
O=C(/C(=C\c1c(-c2ccccc2)[nH]c2ccccc12)S(=O)(=O)c1ccccc1)c1ccccc1 | > 100 µM | > 100 µM
CCNC(=O)/C(=C/c1ccc(OC)cc1)c1cc(OC)c(OC)c(OC)c1 | – | 45.9 µM
Cc1ccc(OCCOCCOCCOCCOc2ccc(C)n(O)c2=S)c(=S)n1O | 0.317 µM | > 100 µM
COc1ccc(-c2ccc3c(N4CCOC[C@@H]4C)nc(N4CCOC[C@@H]4C)nc3n2)cc1CO | 0.00431 µM and 0.026 µM | 0.0831 µM and 0.268 µM
N[C@H](CCC(=O)N[C@@H](Cc1c[nH]c2ccccc12)C(=O)O)C(=O)O | > 100 µM | > 100 µM
Nc1ccccc1O.O.O=C(O)C1[O][Sb][O]C1C(=O)O (centres undefined) | 17.9 µM | 37.4 µM
O=C(c1ccco1)c1c(C(F)(F)F)n([O-])c2ccc(C(F)(F)F)cc2[n+]1=O | 0.475 µM | 0.91 µM
OC(c1cc(-c2ccc(C(F)(F)F)cc2)nc(C(F)(F)F)c1)C1CCCCN1 (centres undefined) | 1.72 µM and 2.39 µM | 3.12 µM and 4.75 µM
CC(C)CC(C/C=C1/CC(CO)(COC(=O)C(C)(C)C)OC1=O)CC(C)C (centres undefined) | – | 21.3 µM
CN(C)C(=S)SSC(=S)N(C)C | 16.3 µM and 40.8 µM and 10.7 µM | 31.9 µM and > 100 µM and > 45.8 µM
CCCC/C(=C\C1=C(C)C(=O)C(OC)=C(OC)C1=O)C(=O)O | > 100 µM | > 100 µM
CCc1ccc2c(c1)C(=O)c1c-2n(CCCN=[N+]=[N-])c(=O)c2cc([N+](=O)[O-])ccc12 | > 50 µM | > 50 µM
Cn1c(=O)c2c(nc(C(=N)SCC(=O)O)n2C)n(C)c1=O | – | > 100 µM
COc1ccc(C(CC(=O)c2ccc3c(c2)OCO3)c2c(O)c3ccccc3oc2=O)cc1OC (centres undefined) | – | > 100 µM
Nc1cc(Br)c(-c2nnc(CCC(=O)c3nc4ccccc4[nH]3)o2)c(Br)c1 | 17.3 µM | 60.8 µM
CCC/C=C/C=C/C1CC(O)C(O)C(=O)C1CO (centres undefined) | – | > 100 µM
COc1ccc(/C(C)=C(\c2ccc(OCCN3CCCCCC3)cc2)c2ccc(OC(=O)C3CCCCC3)cc2)cc1 | 0.833 µM | 2.74 µM

System: UACC-257 melanoma
Test: inhibition of tumour cell growth, NCI panel, 48 h

SMILES | GI50 | TGI
C#CCOc1cccc(Nc2ncnc3c(NC(=O)C=C)cccc23)c1 | 31.4 µM | > 100 µM
O=C(/C(=C\c1c(-c2ccccc2)[nH]c2ccccc12)S(=O)(=O)c1ccccc1)c1ccccc1 | > 100 µM | > 100 µM
CCNC(=O)/C(=C/c1ccc(OC)cc1)c1cc(OC)c(OC)c(OC)c1 | – | > 100 µM
Cc1ccc(OCCOCCOCCOCCOc2ccc(C)n(O)c2=S)c(=S)n1O | 0.0192 µM | > 29.5 µM
COc1ccc(-c2ccc3c(N4CCOC[C@@H]4C)nc(N4CCOC[C@@H]4C)nc3n2)cc1CO | 0.00454 µM and 0.023 µM | 0.0285 µM
N[C@H](CCC(=O)N[C@@H](Cc1c[nH]c2ccccc12)C(=O)O)C(=O)O | > 100 µM | > 100 µM
Nc1ccccc1O.O.O=C(O)C1[O][Sb][O]C1C(=O)O (centres undefined) | 14.1 µM | 28 µM
O=C(c1ccco1)c1c(C(F)(F)F)n([O-])c2ccc(C(F)(F)F)cc2[n+]1=O | 1.49 µM | 3.06 µM
OC(c1cc(-c2ccc(C(F)(F)F)cc2)nc(C(F)(F)F)c1)C1CCCCN1 (centres undefined) | – | 3.59 µM and 3.69 µM
CC(C)CC(C/C=C1/CC(CO)(COC(=O)C(C)(C)C)OC1=O)CC(C)C (centres undefined) | – | 31.3 µM and 31 µM
CN(C)C(=S)SSC(=S)N(C)C | 15 µM and 4.06 µM and 28.4 µM | 30.5 µM and 39.9 µM and > 55.7 µM
CCCC/C(=C\C1=C(C)C(=O)C(OC)=C(OC)C1=O)C(=O)O | > 100 µM | > 100 µM
CCc1ccc2c(c1)C(=O)c1c-2n(CCCN=[N+]=[N-])c(=O)c2cc([N+](=O)[O-])ccc12 | > 50 µM | > 50 µM
Cn1c(=O)c2c(nc(C(=N)SCC(=O)O)n2C)n(C)c1=O | – | > 100 µM
COc1ccc(C(CC(=O)c2ccc3c(c2)OCO3)c2c(O)c3ccccc3oc2=O)cc1OC (centres undefined) | – | > 100 µM
Nc1cc(Br)c(-c2nnc(CCC(=O)c3nc4ccccc4[nH]3)o2)c(Br)c1 | 7.63 µM | > 100 µM
CCC/C=C/C=C/C1CC(O)C(O)C(=O)C1CO (centres undefined) | – | > 100 µM
COc1ccc(/C(C)=C(\c2ccc(OCCN3CCCCCC3)cc2)c2ccc(OC(=O)C3CCCCC3)cc2)cc1 | 0.575 µM | 2.07 µM

System: RXF 393 renal
Test: inhibition of tumour cell growth, NCI panel, 48 h

SMILES | GI50 | TGI
C#CCOc1cccc(Nc2ncnc3c(NC(=O)C=C)cccc23)c1 | 13.3 µM | 39.7 µM
O=C(/C(=C\c1c(-c2ccccc2)[nH]c2ccccc12)S(=O)(=O)c1ccccc1)c1ccccc1 | 97.1 µM | > 100 µM
CCNC(=O)/C(=C/c1ccc(OC)cc1)c1cc(OC)c(OC)c(OC)c1 | – | 11.2 µM
Cc1ccc(OCCOCCOCCOCCOc2ccc(C)n(O)c2=S)c(=S)n1O | 1.55 µM | 22.3 µM
COc1ccc(-c2ccc3c(N4CCOC[C@@H]4C)nc(N4CCOC[C@@H]4C)nc3n2)cc1CO | 0.00244 µM and < 0.0105 µM | 0.00676 µM and 0.0643 µM
N[C@H](CCC(=O)N[C@@H](Cc1c[nH]c2ccccc12)C(=O)O)C(=O)O | > 100 µM | > 100 µM
Nc1ccccc1O.O.O=C(O)C1[O][Sb][O]C1C(=O)O (centres undefined) | 6.35 µM | 16.7 µM
O=C(c1ccco1)c1c(C(F)(F)F)n([O-])c2ccc(C(F)(F)F)cc2[n+]1=O | 0.179 µM | 0.512 µM
OC(c1cc(-c2ccc(C(F)(F)F)cc2)nc(C(F)(F)F)c1)C1CCCCN1 (centres undefined) | – | 3.15 µM
CC(C)CC(C/C=C1/CC(CO)(COC(=O)C(C)(C)C)OC1=O)CC(C)C (centres undefined) | – | 43.8 µM and 32.9 µM
CN(C)C(=S)SSC(=S)N(C)C | 16.5 µM and 38.6 µM and 16.6 µM | 31 µM and > 62.6 µM and 32.6 µM
CCCC/C(=C\C1=C(C)C(=O)C(OC)=C(OC)C1=O)C(=O)O | > 100 µM | > 100 µM
CCc1ccc2c(c1)C(=O)c1c-2n(CCCN=[N+]=[N-])c(=O)c2cc([N+](=O)[O-])ccc12 | > 50 µM | > 50 µM
Cn1c(=O)c2c(nc(C(=N)SCC(=O)O)n2C)n(C)c1=O | – | > 100 µM
COc1ccc(C(CC(=O)c2ccc3c(c2)OCO3)c2c(O)c3ccccc3oc2=O)cc1OC (centres undefined) | – | > 100 µM
Nc1cc(Br)c(-c2nnc(CCC(=O)c3nc4ccccc4[nH]3)o2)c(Br)c1 | 13 µM | 58.7 µM
CCC/C=C/C=C/C1CC(O)C(O)C(=O)C1CO (centres undefined) | – | > 100 µM
COc1ccc(/C(C)=C(\c2ccc(OCCN3CCCCCC3)cc2)c2ccc(OC(=O)C3CCCCC3)cc2)cc1 | 0.704 µM | 2.6 µM

System: EKVX NSCLC
Test: inhibition of tumour cell growth, NCI panel, 48 h

SMILES | GI50 | TGI
C#CCOc1cccc(Nc2ncnc3c(NC(=O)C=C)cccc23)c1 | 28.3 µM | > 100 µM
O=C(/C(=C\c1c(-c2ccccc2)[nH]c2ccccc12)S(=O)(=O)c1ccccc1)c1ccccc1 | 4.56 µM | > 100 µM
CCNC(=O)/C(=C/c1ccc(OC)cc1)c1cc(OC)c(OC)c(OC)c1 | – | > 100 µM
Cc1ccc(OCCOCCOCCOCCOc2ccc(C)n(O)c2=S)c(=S)n1O | 0.0213 µM | > 100 µM
COc1ccc(-c2ccc3c(N4CCOC[C@@H]4C)nc(N4CCOC[C@@H]4C)nc3n2)cc1CO | 0.00504 µM and 0.0229 µM | 0.113 µM and 0.564 µM
N[C@H](CCC(=O)N[C@@H](Cc1c[nH]c2ccccc12)C(=O)O)C(=O)O | > 100 µM | > 100 µM
Nc1ccccc1O.O.O=C(O)C1[O][Sb][O]C1C(=O)O (centres undefined) | 18.1 µM | 38.9 µM
O=C(c1ccco1)c1c(C(F)(F)F)n([O-])c2ccc(C(F)(F)F)cc2[n+]1=O | 0.727 µM | 2.07 µM
OC(c1cc(-c2ccc(C(F)(F)F)cc2)nc(C(F)(F)F)c1)C1CCCCN1 (centres undefined) | 1.96 µM and 4.22 µM | 4.3 µM and 11.6 µM
CC(C)CC(C/C=C1/CC(CO)(COC(=O)C(C)(C)C)OC1=O)CC(C)C (centres undefined) | 1.25 µM and 0.247 µM | 10.7 µM and 7 µM
CN(C)C(=S)SSC(=S)N(C)C | 22 µM and > 73.4 µM and 18.6 µM | 96.3 µM and > 100 µM and 35.1 µM
CCCC/C(=C\C1=C(C)C(=O)C(OC)=C(OC)C1=O)C(=O)O | > 100 µM | > 100 µM
CCc1ccc2c(c1)C(=O)c1c-2n(CCCN=[N+]=[N-])c(=O)c2cc([N+](=O)[O-])ccc12 | > 50 µM | > 50 µM
Cn1c(=O)c2c(nc(C(=N)SCC(=O)O)n2C)n(C)c1=O | – | > 100 µM
COc1ccc(C(CC(=O)c2ccc3c(c2)OCO3)c2c(O)c3ccccc3oc2=O)cc1OC (centres undefined) | – | > 100 µM
Nc1cc(Br)c(-c2nnc(CCC(=O)c3nc4ccccc4[nH]3)o2)c(Br)c1 | 23.1 µM | > 100 µM
CCC/C=C/C=C/C1CC(O)C(O)C(=O)C1CO (centres undefined) | – | > 100 µM
COc1ccc(/C(C)=C(\c2ccc(OCCN3CCCCCC3)cc2)c2ccc(OC(=O)C3CCCCC3)cc2)cc1 | 1.39 µM | 5.48 µM
